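A five-concentration, 48-hour dose response in 96-well plates underlies each endpoint, interpolated linearly between surrounding concentrations. Definition used: TGI = concentration required for complete inhibition of growth.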
What was measured:
Test in all cases: NCI-60 cell line screen, 48 h
[1] = system: HOP-92 NSCLC
[2] = system: K-562 leukemia
[3] = system: EKVX NSCLC
[4] = system: A549 NSCLC
[5] = system: SF-539 CNS
[6] = system: UACC-257 melanoma
[7] = system: OVCAR-3 ovarian
[8] = system: NCI-H522 lung
[9] = system: T-47D breast
[10] = system: M14 melanoma
[11] = system: SNB-19 CNS
[12] = system: OVCAR-8 ovarian
[13] = system: HT29 colon
[14] = system: NCI-H460 lung
[15] = system: A498 renal
[16] = system: BT-549 breast
[17] = system: COLO 205 colon
[18] = system: NCI/ADR-RES ovarian
[19] = system: OVCAR-4 ovarian
[20] = system: LOX IMVI melanoma
[21] = system: NCI-H23 lung
[22] = system: MALME-3M melanoma
[23] = system: SK-MEL-5 melanoma
[24] = system: CCRF-CEM leukemia
[25] = system: UACC-62 melanoma
[26] = system: KM12 colon
[27] = system: NCI-H226 lung
[28] = system: SNB-75 CNS
[29] = system: SK-MEL-28 melanoma
[30] = system: SW-620 colon
[31] = system: U251 CNS
[32] = system: SN12C renal
[33] = system: SF-268 CNS
[34] = system: RPMI-8226 leukemia
[35] = system: MDA-MB-435
[36] = system: SK-OV-3 ovarian
[37] = system: 786-0 renal
[38] = system: CAKI-1 renal
[39] = system: SF-295 CNS
[40] = system: ACHN renal
[41] = system: PC-3 prostate
[42] = system: TK-10 renal
[43] = system: HCT-116 colon
[44] = system: MOLT-4 leukemia
[45] = system: SK-MEL-2 melanoma
[46] = system: HCT-15 colon
[47] = system: UO-31 renal
[48] = system: SR leukemia
[49] = system: MCF7 breast
[50] = system: IGROV1 ovarian
[51] = system: HL-60(TB) leukemia
[52] = system: HOP-62 NSCLC
[53] = system: HCC-2998 colon
[54] = system: DU-145 prostate
[55] = system: RXF 393 renal
[56] = system: MDA-MB-231 breast
[57] = system: MDA-N
[58] = system: HS 578T breast
[59] = system: OVCAR-5 ovarian
[60] = system: DMS 273 small cell lung
[61] = system: DMS 114 small cell lung
[62] = system: LXFL 529 NSCLC
[63] = system: M19-MEL melanoma
[64] = system: KM20L2 colon
[65] = system: DLD-1 colon
[66] = system: XF 498 CNS
[67] = system: SNB-78 CNS

C[C@H]1[C@H](C)CC[C@]2(C(=O)OC3OC(CO)C(O)C(O)C3O)CC[C@]3(C)C(=CC[C@@H]4[C@@]5(C)C[C@@H](O)[C@@H]6OC(=O)c7cc(O)c(O)c(O)c7-c7c(cc(O)c(O)c7O)C(=O)OC[C@@]6(CO)[C@@H]5CC[C@]43C)[C@H]12 (stereo not given in full)
TGI [1]: > 100 µM
TGI [2]: 78.5 µM
TGI [3]: > 100 µM
TGI [4]: > 100 µM
TGI [5]: > 100 µM
TGI [6]: > 100 µM
TGI [7]: > 91.4 µM
TGI [8]: > 100 µM
TGI [9]: > 100 µM
TGI [10]: > 100 µM
TGI [11]: > 100 µM
TGI [12]: > 100 µM
TGI [13]: > 57.9 µM
TGI [14]: > 100 µM
TGI [15]: > 100 µM
TGI [16]: > 100 µM
TGI [17]: > 100 µM
TGI [18]: > 100 µM
TGI [19]: 75.3 µM
TGI [20]: 35.9 µM
TGI [21]: > 100 µM
TGI [22]: > 100 µM
TGI [23]: > 100 µM
TGI [24]: 98.7 µM
TGI [25]: > 100 µM
TGI [26]: > 100 µM
TGI [27]: > 100 µM
TGI [28]: > 100 µM
TGI [29]: > 100 µM
TGI [30]: > 67 µM
TGI [31]: > 100 µM
TGI [32]: > 100 µM
TGI [33]: > 100 µM
TGI [34]: > 100 µM
TGI [35]: 37.2 µM
TGI [36]: > 100 µM
TGI [37]: > 53.7 µM
TGI [38]: > 100 µM
TGI [39]: > 100 µM
TGI [40]: > 100 µM
TGI [41]: > 100 µM
TGI [42]: > 100 µM
TGI [43]: > 100 µM
TGI [44]: > 100 µM
TGI [45]: > 100 µM
TGI [46]: > 100 µM
TGI [47]: > 100 µM
TGI [48]: > 100 µM
TGI [49]: 36.4 µM
TGI [50]: > 100 µM
TGI [51]: > 100 µM
TGI [52]: > 100 µM
TGI [53]: > 100 µM
TGI [54]: > 100 µM
TGI [55]: > 100 µM
TGI [56]: 37 µM
TGI [57]: 51.4 µM
TGI [58]: > 100 µM
TGI [59]: > 100 µM

Nc1c2ccccc2nc2c(C(=O)Nc3ccc(S(N)(=O)=O)cc3)cccc12
TGI [2]: > 100 µM
TGI [60]: > 100 µM
TGI [3]: > 100 µM
TGI [4]: > 100 µM
TGI [61]: > 100 µM
TGI [62]: > 100 µM
TGI [5]: > 100 µM
TGI [6]: > 100 µM
TGI [7]: > 100 µM
TGI [8]: > 100 µM
TGI [63]: > 100 µM
TGI [10]: > 100 µM
TGI [11]: > 100 µM
TGI [12]: > 100 µM
TGI [13]: > 100 µM
TGI [14]: > 100 µM
TGI [15]: > 100 µM
TGI [17]: > 100 µM
TGI [19]: > 100 µM
TGI [20]: > 100 µM
TGI [21]: > 100 µM
TGI [22]: > 100 µM
TGI [23]: > 100 µM
TGI [24]: > 100 µM
TGI [25]: > 100 µM
TGI [26]: > 100 µM
TGI [27]: > 100 µM
TGI [28]: > 100 µM
TGI [29]: > 100 µM
TGI [30]: > 100 µM
TGI [31]: > 100 µM
TGI [32]: > 100 µM
TGI [64]: > 100 µM
TGI [33]: > 100 µM
TGI [34]: > 100 µM
TGI [36]: > 100 µM
TGI [37]: > 100 µM
TGI [38]: > 100 µM
TGI [39]: > 100 µM
TGI [40]: > 100 µM
TGI [42]: > 100 µM
TGI [43]: > 100 µM
TGI [44]: 58.6 µM
TGI [65]: > 100 µM
TGI [66]: > 100 µM
TGI [45]: > 100 µM
TGI [46]: > 100 µM
TGI [47]: > 100 µM
TGI [50]: > 100 µM
TGI [52]: > 100 µM
TGI [53]: > 100 µM
TGI [55]: > 100 µM
TGI [67]: > 100 µM
TGI [59]: > 100 µM

O=C(Nc1nn(C(=O)c2cccnc2)c(=O)s1)c1ccc(Cl)cc1
TGI [1]: > 100 µM
TGI [2]: > 100 µM
TGI [3]: > 100 µM
TGI [4]: > 100 µM
TGI [5]: 95.4 µM
TGI [6]: > 100 µM
TGI [7]: > 100 µM
TGI [8]: 51.7 µM
TGI [9]: > 100 µM
TGI [10]: > 100 µM
TGI [11]: > 100 µM
TGI [12]: > 100 µM
TGI [13]: > 100 µM
TGI [14]: > 100 µM
TGI [15]: > 100 µM
TGI [16]: > 100 µM
TGI [17]: > 100 µM
TGI [18]: > 100 µM
TGI [19]: > 100 µM
TGI [20]: > 100 µM
TGI [21]: > 100 µM
TGI [22]: 91.5 µM
TGI [23]: > 100 µM
TGI [24]: > 100 µM
TGI [25]: > 100 µM
TGI [26]: > 100 µM
TGI [27]: 77.2 µM
TGI [28]: 82.2 µM
TGI [29]: > 100 µM
TGI [30]: > 100 µM
TGI [31]: > 100 µM
TGI [32]: > 100 µM
TGI [33]: 40.4 µM
TGI [35]: > 100 µM
TGI [36]: > 100 µM
TGI [37]: > 100 µM
TGI [38]: > 100 µM
TGI [39]: > 100 µM
TGI [40]: > 100 µM
TGI [41]: > 100 µM
TGI [42]: > 100 µM
TGI [43]: > 100 µM
TGI [44]: > 100 µM
TGI [45]: > 100 µM
TGI [46]: > 100 µM
TGI [47]: 78.9 µM
TGI [48]: > 100 µM
TGI [49]: > 100 µM
TGI [51]: > 100 µM
TGI [52]: > 100 µM
TGI [53]: > 100 µM
TGI [54]: > 100 µM
TGI [55]: 93.8 µM
TGI [56]: > 100 µM
TGI [57]: > 100 µM
TGI [58]: 60.3 µM
TGI [59]: > 100 µM
